Assay results published in patent US20200102264A1, “MARMELIN ANALOGS AND METHODS OF USE IN CANCER TREATMENT” (THE UNIVERSITY OF KANSAS, priority 2014, published 2020).

How the values were obtained:
[1] = tested on: HCT116 colon cancer cells; assay: hexoseaminidase cell proliferation assay, HCT116; type: cell-based; details: Homo sapiens, HCT-116
Excerpt: (§1) Using hexoseaminidase assay, we determined the effect of the compounds on cell proliferation. […]
(§2) Using hexoseaminidase assay, we determined the effect of the compounds on cell proliferation. […] […] […] Overall, the analogs can be used as chemotherapeutic agents against colon and pancreatic cancer.

SW480 colon cancer cells = assay: hexoseaminidase cell proliferation assay, SW480; type: cell-based; details: Homo sapiens
Excerpt: as §1, §2

[2] = tested on: MiaPaCa-2 pancreatic cancer cells; assay: hexoseaminidase cell proliferation assay, MiaPaCa-2; type: cell-based; details: Homo sapiens, MIA PaCa-2
Description: (§3) Using hexoseaminidase assay, we determined the effect of the compounds on cell proliferation. […] The IC50 value at 48 hours is below 10 μM in all the cancer cell lines.
(§4) Using hexoseaminidase assay, we determined the effect of the compounds on cell proliferation. […] The MRL16 IC50 value at 48 hours is below 0.3 μM in Colon cancer cell lines. […] Overall, the analogs can be used as chemotherapeutic agents against colon and pancreatic cancer.

[3] = tested on: PanC-1 pancreatic cancer cells; assay: hexoseaminidase cell proliferation assay, PanC-1; type: cell-based; details: Homo sapiens
Description: as §3, §4

KU7 bladder cancer cells = assay: hexoseaminidase cell proliferation assay, KU7; type: cell-based
Description: as §3

[4] = tested on: 253JBV bladder cancer cells; assay: hexoseaminidase cell proliferation assay, 253JBV; type: cell-based
Description: as §3

HCT116 cells [5] = assay: cell cycle analysis, HCT116; type: cell-based; details: for cell cycle effect (in words): HCT116 cells
[6] = tested on: colon, pancreatic and bladder cancer cells; assay: hexoseaminidase cell proliferation assay, summaries over cell lines; type: cell-based; details: for inhibition of cell proliferation (in words): dose and time dependent
Description: Water solubility studies were performed with the CD/analog complexes. […] The observed IC50 value of THBCD at 48 h is below 10 μM in all the colon, pancreatic and bladder cancer cells.
as §3, §4

HCT116 cells [7] = assay: colony formation, HCT116; type: cell-based
SW480 cells [8] = assay: colony formation, SW480; type: cell-based
MiaPaCa-2 cells = assay: colony formation, MiaPaCa-2; type: cell-based
PanC-1 cells = assay: colony formation, PanC-1; type: cell-based
cancer stem cells = assay: colonosphere formation; type: cell-based
Description: It was also determined the analogs inhibit colonosphere formation from cancer stem cells. […] The columns are 0, 10, 25, and 50 micromolar concentrations of the compounds labeled by rows.
The effect of the compounds on colonosphere formation was determined. […] Overall, the analogs have shown they can be used as chemotherapeutic agents against colon, pancreatic and bladder cancer.

[9] = tested on: HCT116 colon cancer tumor xenografts; assay: HCT116 colon cancer tumor xenografts in nude mice; type: in vivo
Description: For in vivo, HCT116 cells were injected into the blanks of nude mice, after one week when there was a palpable tumor and these compounds were injected intraperitonially (5 mg/kg body weight) every day for 21 days. Tumor volumes were measured weekly. On 29th day mice were euthanized and the tumors were removed and weighed for use in histology, immunohistochemistry, and gene expression studies. Both THB and THBCD inhibited growth of the tumor. It is noted that the images of FIG. 4C are from left to right: control; THB; and THBCD.
For in vivo, HCT116 cells were injected into the blanks of nude mice, after one week when there was a palpable tumor and these compounds were injected intraperitonially (5 mg/kg body weight) every day for 21 days. Tumor volumes were measured weekly. On 29th day mice were euthanized and the tumors were removed and weighed for use in histology, immunohistochemistry, and gene expression studies. DBQ inhibited the growth of the tumor. It is noted that the images of FIG. 16C are from left to right: control; and DBQ.
FIGS. 19A and 19B show MRL 16 inhibits tumor growth, such as on colon cancer tumor xenografts. For in vivo, HCT116 cells were injected into the blanks of nude mice, after one week when there was a palpable tumor and these compounds were injected intraperitonially (2 mg/kg body weight) every day for 21 days. Tumor volumes were measured weekly. On 29th day mice were euthanized and the tumors were removed and weighed. MRL16 inhibited growth of the tumor.

SW480 cells [10] = assay: cell cycle analysis, SW480; type: cell-based
Description: The analogs were tested to determine the ability induce death of colon cancer cells.

HCT116 cells [11] = assay: colonosphere formation, HCT116; type: cell-based
Excerpt: These compounds may be preferred in some instances.

[12] = tested on: transcription factor NF-κB; details: previous studies, Cancer Res. 2008; cited from earlier work
[13] = intraperitoneal 5 mg/kg body weight every day for 21 days
[14] = intraperitoneal 2 mg/kg body weight every day for 21 days

| SMILES | IC50 ([1]; HCT116, 24 h) | IC50 ([1]; HCT116, 48 h) | IC50 ([1]; HCT116, 72 h) | IC50 (SW480 colon cancer cells; SW480, 24 h) | IC50 (SW480 colon cancer cells; SW480, 48 h) | IC50 (SW480 colon cancer cells; SW480, 72 h) | IC50 ([2]; MiaPaCa-2, 24 h) | IC50 ([2]; MiaPaCa-2, 48 h) | IC50 ([2]; MiaPaCa-2, 72 h) | IC50 ([3]; PANC-1, 24 h) | IC50 ([3]; PANC-1, 48 h) | IC50 ([3]; PANC-1, 72 h) | inhibition of cell proliferation (in words) [6] | colony formation (HCT116 cells [7]) | colony formation (SW480 cells [8]) | G0/G1 (%) (HCT116 cells [5]; HCT116, 24 h) | G2/M (%) (HCT116 cells [5]; HCT116, 24 h) | S (%) (HCT116 cells [5]; HCT116, 24 h) | SubG0 Dead Cells (%) (HCT116 cells [5]; HCT116, 24 h) | G0/G1 (%) (HCT116 cells [5]; HCT116, 48 h) | also measured |
| --- | --- | --- | --- | --- | --- | --- | --- | --- | --- | --- | --- | --- | --- | --- | --- | --- | --- | --- | --- | --- | --- |
| CC(C)(C)C1=CC(=NNC(=O)c2cc3ccccc3cc2O)C=C(C(C)(C)C)C1=O [DBQ] | 10 µM | 5 µM | 5 µM | 10 µM | 6 µM | 5 µM | 25 µM | 8 µM | 6 µM | 45 µM | 9 µM | 7 µM | potent inhibitor | inhibit colony formation | inhibit colony formation | – | – | – | – | – | IC50 (KU7 bladder cancer cells; KU7, 24 h): 20 µM; IC50 (KU7 bladder cancer cells; KU7, 48 h): 8 µM; IC50 (KU7 bladder cancer cells; KU7, 72 h): 6 µM; IC50 ([4]; 24 h): 50 µM; IC50 ([4]; 48 h): 25 µM; IC50 ([4]; 72 h): 6 µM; cell cycle effect (in words) (HCT116 cells [5]; 5 μM and 10 μM, 24 hours, propidium iodide flow cytometry): induces G2/M arrest; IC50 ([6]; 48 h, all the colon, pancreatic and bladder cancer cell lines): < 10 µM; colony formation (MiaPaCa-2 cells): inhibit colony formation; colony formation (PanC-1 cells): inhibit colony formation; colonosphere formation (cancer stem cells): potent inhibitors of colonosphere formation; tumor volume [9, 13]: significantly reduced; tumor weight [9, 13]: significantly reduced |
| C/C(=N\NC(=O)c1ccncc1)c1ccc2ccccc2c1O [MRL16] | > 2 µM | 0.3 µM | 0.2 µM | > 2 µM | 0.3 µM | 0.2 µM | > 10 µM | > 10 µM | 5 µM | > 10 µM | 4 µM | 2.5 µM | potent inhibitor | inhibit colony formation | – | 57.3% | 26.9% | 14.5% | 1.11% | 63.7% | G2/M (%) (HCT116 cells [5]; HCT116, 48 h): 19.9%; S (%) (HCT116 cells [5]; HCT116, 48 h): 14.4%; SubG0 Dead Cells (%) (HCT116 cells [5]; HCT116, 48 h): 1.70%; cell cycle effect (in words) (HCT116 cells [5]): induces G2/M arrest; G0/G1 (%) (SW480 cells [10]; SW480, 24 h): 59.8%; G2M/ (%) (SW480 cells [10]; SW480, 24 h): 19.7%; S (%) (SW480 cells [10]; SW480, 24 h): 19.7%; SubG0 Dead Cells (%) (SW480 cells [10]; SW480, 24 h): 0.77%; cell cycle effect (in words) (SW480 cells [10]; SW480, 24 h): induces G1 arrest; G0/G1 (%) (SW480 cells [10]; SW480, 48 h): 58.4%; G2M/ (%) (SW480 cells [10]; SW480, 48 h): 20.1%; S (%) (SW480 cells [10]; SW480, 48 h): 20.0%; SubG0 Dead Cells (%) (SW480 cells [10]; SW480, 48 h): 1.05%; cell cycle effect (in words) (SW480 cells [10]; SW480, 48 h): S-phase arrest; IC50 ([6]; 48 hours, Colon cancer cell lines): < 0.3 µM; colonosphere formation (HCT116 cells [11]): inhibits colonosphere formation; tumor volume [9, 14]: significantly reduced; tumor weight [9, 14]: significantly reduced |
| C/C(=N\NC(=O)c1cccnc1)c1ccc2ccccc2c1O [MRL17] | > 2 µM | 1 µM | 0.8 µM | > 2 µM | 1 µM | 0.6 µM | > 10 µM | > 10 µM | 5 µM | > 10 µM | 3 µM | 1 µM | potent inhibitor | inhibit colony formation | – | 63.9% | 20.9% | 14.0% | 0.99% | 63.1% | G2/M (%) (HCT116 cells [5]; HCT116, 48 h): 20.8%; S (%) (HCT116 cells [5]; HCT116, 48 h): 14.3%; SubG0 Dead Cells (%) (HCT116 cells [5]; HCT116, 48 h): 1.57%; cell cycle effect (in words) (HCT116 cells [5]): induces G2/M arrest; G0/G1 (%) (SW480 cells [10]; SW480, 24 h): 54.9%; G2M/ (%) (SW480 cells [10]; SW480, 24 h): 22.0%; S (%) (SW480 cells [10]; SW480, 24 h): 22.3%; SubG0 Dead Cells (%) (SW480 cells [10]; SW480, 24 h): 0.50%; cell cycle effect (in words) (SW480 cells [10]; SW480, 24 h): induces G1 arrest; G0/G1 (%) (SW480 cells [10]; SW480, 48 h): 59.3%; G2M/ (%) (SW480 cells [10]; SW480, 48 h): 18.3%; S (%) (SW480 cells [10]; SW480, 48 h): 20.8%; SubG0 Dead Cells (%) (SW480 cells [10]; SW480, 48 h): 1.12%; cell cycle effect (in words) (SW480 cells [10]; SW480, 48 h): S-phase arrest; colonosphere formation (HCT116 cells [11]): inhibits colonosphere formation |
| COc1cc(OC)c2ccc(C=O)c(O)c2c1 [MRL, 1-hydroxy-5,7-dimethoxy-2-naphthalene-carboxaldehyde, reference compound] | > 50 µM | > 50 µM | > 50 µM | > 50 µM | > 50 µM | > 50 µM | > 50 µM | > 50 µM | > 50 µM | > 50 µM | > 50 µM | > 50 µM | – | does not appear to significantly inhibit colony formation | does not appear to significantly inhibit colony formation | – | – | – | – | – | G0/G1 (%) (HCT116 cells [5]; HCT116, Table 3): 45.3%; G2M (%) (HCT116 cells [5]; HCT116, Table 3): 11.4%; S (%) (HCT116 cells [5]; HCT116, Table 3): 11.5%; SubG0 Dead Cells (%) (HCT116 cells [5]; HCT116, Table 3): 29.9%; G0/G1 (%) (SW480 cells [10]; SW480, Table 3): 65.3%; G2M (%) (SW480 cells [10]; SW480, Table 3): 18.1%; S (%) (SW480 cells [10]; SW480, Table 3): 10.2%; SubG0 Dead Cells (%) (SW480 cells [10]; SW480, Table 3): 6.0%; action of transcription factor NF-κB [12]: can inhibit |
